According to the supplement of paper PMC10307832:

How the values were obtained:
Assay in all cases: relative viability (nuclei count vs DMSO), 5 days (fraction); higher = more cells survive
AZD1208 + Trametinib = compound: N[C@@H]1CCCN(c2c(/C=C3\SC(=O)NC3=O)cccc2-c2ccccc2)C1 [AZD1208] + CC(=O)Nc1cccc(-n2c(=O)n(C3CC3)c(=O)c3c(Nc4ccc(I)cc4F)n(C)c(=O)c(C)c32)c1 [Trametinib] (partner 0.02 µM)
Outline: (§1)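 Nuclei were stained with Hoechst during a one-step fixation (final 0.05% Triton X-100, 1% formaldehyde, 1 ug/ml Hoechst) carried out 5 days after dosing, then counted on 4× images. The cells, lung cancer lines in 1536-well plates, had been dosed by pin tool the day after seeding with one drug alone or a fixed anchor-drug dose plus five library-drug doses (not always all listed) in √10 steps. Relative viability is the nuclei count in treated wells divided by that in vehicle wells, and each value is the median of duplicate plates.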

XMD14-99 + Decitabine = compound: CN1CCN(CC1)C2=CC(=C(C=C2)NC3=NC(=C(S3)C(=O)C4=C(C=CC=C4Cl)Cl)N)OC [XMD14-99] + Nc1ncn([C@H]2C[C@H](O)[C@@H](CO)O2)c(=O)n1 [Decitabine] (partner 2 µM)
Outline: as §1

AZD1208 + AZD7762 = compound: N[C@@H]1CCCN(c2c(/C=C3\SC(=O)NC3=O)cccc2-c2ccccc2)C1 [AZD1208] + NC(=O)Nc1cc(-c2cccc(F)c2)sc1C(=O)N[C@H]1CCCNC1 [AZD7762] (partner 0.2 µM)
Outline: as §1

XMD14-99 + Pictilisib = compound: CN1CCN(CC1)C2=CC(=C(C=C2)NC3=NC(=C(S3)C(=O)C4=C(C=CC=C4Cl)Cl)N)OC [XMD14-99] + CS(=O)(=O)N1CCN(Cc2cc3nc(-c4cccc5[nH]ncc45)nc(N4CCOCC4)c3s2)CC1 [Pictilisib] (partner 1 µM)
Outline: as §1

| Cell Line | relative viability (AZD1208 + Trametinib; first compound 0.08 µM) | relative viability (AZD1208 + Trametinib; first compound 0.253 µM) | relative viability (AZD1208 + Trametinib; first compound 0.8 µM) | relative viability (AZD1208 + Trametinib; first compound 2.53 µM) | relative viability (AZD1208 + Trametinib; first compound 8 µM) | relative viability (XMD14-99 + Decitabine; first compound 0.08 µM) | relative viability (XMD14-99 + Decitabine; first compound 0.8 µM) | relative viability (XMD14-99 + Decitabine; first compound 2.53 µM) | relative viability (XMD14-99 + Decitabine; first compound 8 µM) | relative viability (AZD1208 + AZD7762; first compound 0.08 µM) | relative viability (AZD1208 + AZD7762; first compound 0.253 µM) | relative viability (AZD1208 + AZD7762; first compound 0.8 µM) | relative viability (AZD1208 + AZD7762; first compound 2.53 µM) | relative viability (AZD1208 + AZD7762; first compound 8 µM) | relative viability (XMD14-99 + Pictilisib; first compound 0.08 µM) | relative viability (XMD14-99 + Pictilisib; first compound 0.8 µM) | relative viability (XMD14-99 + Pictilisib; first compound 2.53 µM) | relative viability (XMD14-99 + Pictilisib; first compound 8 µM) |
| --- | --- | --- | --- | --- | --- | --- | --- | --- | --- | --- | --- | --- | --- | --- | --- | --- | --- | --- |
| 201T | 0.749 | 0.716 | 0.721 | 0.725 | 0.732 | 0.852 | 0.833 | 0.833 | 0.741 | 0.669 | 0.654 | 0.565 | 0.693 | 0.511 | 0.7 | 0.666 | 0.658 | 0.619 |
| A549 | – | – | – | – | – | 0.284 | 0.271 | 0.203 | 0.229 | – | – | – | – | – | 0.397 | 0.545 | 0.505 | 0.348 |
| A-427 | 0.622 | 0.71 | 0.6 | 0.619 | 0.537 | 0.537 | 0.545 | 0.541 | 0.521 | 0.7 | 0.789 | 0.665 | 0.653 | 0.689 | 0.694 | 0.784 | 0.607 | 0.448 |
| ABC-1 | – | – | – | – | – | 1.1 | 1.05 | 0.679 | 0.935 | 0.905 | 0.728 | 0.785 | 0.884 | 1.35 | 0.754 | 0.667 | 0.588 | 0.47 |
| BEN | 0.843 | 0.754 | 0.636 | 0.768 | 0.576 | 0.853 | 0.701 | 0.707 | 0.558 | 0.749 | 0.578 | 0.562 | 0.503 | 0.478 | 0.554 | 0.523 | 0.641 | 0.442 |
| CAL-12T | 0.377 | 0.331 | 0.339 | 0.332 | 0.251 | – | – | – | – | 0.621 | 0.624 | 0.621 | 0.596 | 0.905 | 0.397 | 0.453 | 0.334 | 0.287 |
| COR-L23 | 0.511 | 0.581 | 0.525 | 0.57 | 0.301 | 0.467 | 0.428 | 0.41 | 0.382 | – | – | – | – | – | 0.676 | 0.748 | 0.68 | 0.414 |
| COR-L 105 | 0.435 | 0.366 | 0.408 | 0.625 | 0.378 | 0.718 | 0.651 | 0.606 | 0.604 | – | – | – | – | – | 0.363 | 0.374 | 0.34 | 0.357 |
| Calu-6 | – | – | – | – | – | – | – | – | – | – | – | – | – | – | 0.881 | 0.824 | 0.785 | 0.57 |
| ChaGo-K-1 | 0.884 | 0.905 | 0.78 | 0.88 | 0.806 | 0.52 | 0.531 | 0.5 | 0.481 | 0.849 | 0.931 | 0.813 | 0.952 | 0.776 | 0.811 | 0.703 | 0.67 | 0.509 |
| EBC-1 | – | – | – | – | – | – | – | – | – | – | – | – | – | – | 0.481 | 0.391 | 0.318 | 0.26 |
| EKVX | 0.35 | 0.387 | 0.306 | 0.309 | 0.45 | 0.274 | 0.322 | 0.316 | 0.239 | 0.76 | 0.801 | 0.674 | 0.719 | 0.606 | 0.422 | 0.488 | 0.487 | 0.35 |
| EMC-BAC-2 | 0.852 | 0.83 | 0.777 | 0.806 | 0.702 | 0.973 | 0.898 | 0.838 | 0.802 | 1.21 | 1.13 | 0.866 | 1.03 | 0.875 | 0.573 | 0.519 | 0.519 | 0.413 |
| EPLC-272H | 0.312 | 0.268 | 0.279 | 0.254 | 0.315 | 0.386 | 0.41 | 0.353 | 0.314 | 0.276 | 0.339 | 0.205 | 0.189 | 0.271 | 0.338 | 0.338 | 0.284 | 0.247 |
| H3255 | 0.537 | 0.616 | 0.636 | 0.624 | 0.519 | 0.584 | 0.674 | 0.546 | 0.513 | 1.01 | 0.992 | 0.898 | 0.912 | 0.845 | 0.451 | 0.39 | 0.403 | 0.302 |
| HARA | 0.551 | 0.743 | 0.761 | 0.542 | 0.35 | 0.565 | 0.505 | 0.537 | 0.403 | 0.36 | 0.468 | 0.373 | 0.557 | 0.44 | 0.35 | 0.382 | 0.222 | 0.298 |
| HCC-15 | 0.381 | 0.338 | 0.326 | 0.312 | 0.296 | 0.668 | 0.605 | 0.599 | 0.415 | 1.19 | 1.26 | 1.03 | 1.43 | 1.19 | 0.727 | 0.778 | 0.703 | 0.495 |
| HCC-44 | 1.1 | 1.12 | 1.02 | 1.1 | 1.05 | 1.01 | 0.902 | 0.898 | 0.911 | 1.01 | 1.05 | 1.03 | 1.07 | 1.08 | 0.6 | 0.655 | 0.568 | 0.626 |
| HCC-78 | 0.689 | 0.806 | 0.702 | 0.834 | 0.919 | 0.709 | 0.646 | 0.822 | 0.47 | 0.737 | 0.758 | 0.643 | 0.739 | 0.793 | 0.221 | 0.224 | 0.2 | 0.191 |
| HCC-366 | 0.328 | 0.327 | 0.297 | 0.286 | 0.221 | 0.32 | 0.363 | 0.347 | 0.291 | 0.368 | 0.362 | 0.371 | 0.41 | 0.387 | 0.137 | 0.143 | 0.156 | 0.149 |
| HCC-827 | 0.557 | 0.516 | 0.536 | 0.524 | 0.398 | 0.354 | 0.273 | 0.296 | 0.306 | 0.205 | 0.259 | 0.237 | 0.239 | 0.197 | 1.1 | 0.895 | 0.917 | 0.998 |
